Experimental data published in patent US11793827B2, “Adenosine derivative and pharmaceutical composition comprising the same” (Brii Biosciences, Inc., priority 2021, dated 2023).

Assays:
[1] = Plasma stability (human plasma); conditions: for Formation of EFdA at 30 min: human plasma; for half-life at 2 µM: human, pH 7.4
Method: The pooled frozen plasma was thawed in a water bath at 37° C. prior to experiment. Plasma was centrifuged at 4000 rpm for 5 min and the clots were removed if any. The pH will be adjusted to 7.4±0.1 if required.
Preparation of test compounds and positive control (propantheline bromide): 1 mM intermediate solution was prepared by diluting 10 μL of the stock solution with 90 μL MeOH; 1 mM intermediate of positive control Propantheline was prepared by diluting 10 μL of the stock solution with 90 μL ultrapure water. 100 μM dosing solution was prepared by diluting 20 μL of the intermediate solution (1 mM) with 180 μL MeOH. 98 μL of blank plasma was spiked with 2 μL of dosing solution (100 μM) to achieve 2 μM of the final concentration in duplicate and samples were incubated at 37° C. in a water bath. […] Centrifuged sample plates at 4,000 rpm for 10 min. An aliquot of supernatant (100 μL) was transferred from each well to another plates.

[2] = Liver S9 stability (human liver S9); type: in vitro ADME; conditions: for half-life at 1 µM: human liver S9, 37° C.; for Formation of EFdA at 30 min: human liver S9, 30 min
Method: Add 600 μL/well stop solution (cold in 4° C., including 100 ng/mL Tolbutamide/100 ng/mL Labetalol) to terminate the TO plate, then put it on ice. Dispense 840 μL/well S9 solution to 96-well plate as reservoir according to plate map. Then add 100 μL/well to every plate by Apricot. Incubate S9 solution and compound at 37° C. for about 10 min except NCF60 and TO. After adding S9 solution and 98μ LPB buffer to NCF60, incubate at 37° C. without pre-warming, start timer 1. After 60 min, add 600 μL/well stop solution to terminate the reaction. After pre-warming, dispense 760 μL/well cofactor solution to 96-well plate as reservoir according to plate map. Then add 98 μL/well to every plate by Apricot to start reaction. Incubate at 37° C., start timer 2, Add 600 μL/well stop solution (cold in 4° C., including 100 ng/mL Tolbutamide and Labetalol) to terminate the reaction. Samples are centrifuged at 4000 rpm for 20 min. While centrifuging, load 8× new 96-well plate with 300 μL HPLC water, then transfer 100 μL supernatant, mix with water for LC/MS/MS, transferred to Bioanalytical Services for LC-MS/MS analysis. Use equation of first order kinetics [NT]1/2 and CL: Equation of first order kinetics: [formula] [formula] [formula] [formula]

[3] = Plasma exposures following intramuscular administration of prodrugs to cynomolgus monkeys; conditions: single IM injection, 10 mg/kg

Structure (SMILES)	Formation of EFdA at 30 min [1]	half-life at 2 µM ([1]; pooled plasma)	half-life at 1 µM [2]	Formation of EFdA at 30 min [2]	Release of EFdA in vivo and prodrug level in the systemic circulation [3]	half-life at 2 µM ([1]; plasma)
C#C[C@]1(COC(=O)OCC23CC4CC(CC(C4)C2)C3)O[C@@H](n2cnc3c(N)nc(F)nc32)C[C@@H]1OC(=O)OCC [Compound 24, ((2R,3S,5R)-2-(1-adamantylmethoxycarbonyloxymethyl)-5-(6-amino-2-fluoro-9H-purin-9-yl)-2-ethynyl-tetrahydrofuran-3-yl) ethyl carbonate]	Yes		< 50 min	Yes		50 to 200 min
C#C[C@]1(COC(=O)OCCCCC23CC4CC(CC(C4)C2)C3)O[C@@H](n2cnc3c(N)nc(F)nc32)C[C@@H]1OC(=O)OCC [Compound 25, ((2R,3S,5R)-2-[4-(1-adamantyl)butoxycarbonyloxymethyl]-5-(6-amino-2-fluoro-9H-purin-9-yl)-2-ethynyl-tetrahydrofuran-3-yl) ethyl carbonate]	Yes		< 50 min	Yes		50 to 200 min
C#C[C@]1(COC(=O)OCCCC23CC4CC(CC(C4)C2)C3)O[C@@H](n2cnc3c(N)nc(F)nc32)C[C@@H]1OC(=O)OCC [Compound 26, ((2R,3S,5R)-2-[3-(1-adamantyl)propoxycarbonyloxymethyl]-5-(6-amino-2-fluoro-9H-purin-9-yl)-2-ethynyl-tetrahydrofuran-3-yl) ethyl carbonate]	Yes		< 50 min	Yes		< 50 min
C#C[C@]1(COC(=O)OC23CC4CC(CC(C4)C2)C3)O[C@@H](n2cnc3c(N)nc(F)nc32)C[C@@H]1OC(=O)OCC [Compound 27, 1-adamantyl ((2R,3S,5R)-5-(6-amino-2-fluoro-purin-9-yl)-3-ethoxycarbonyloxy-2-ethynyl-tetrahydrofuran-2-yl)methyl carbonate]	No		< 50 min	Yes		> 200 min

Further lines, with some results ahead:

Formation of EFdA at 30 min [1]	half-life at 2 µM ([1]; pooled plasma)	half-life at 1 µM [2]	Formation of EFdA at 30 min [2]	Structure (SMILES)	Release of EFdA in vivo and prodrug level in the systemic circulation [3]	half-life at 2 µM ([1]; plasma)
Yes	< 50 min	< 50 min	Yes	C#C[C@]1(COC(=O)OCCC23CC4CC(CC(C4)C2)C3)O[C@@H](n2cnc3c(N)nc(F)nc32)C[C@@H]1O [Compound 7, ((2R, 3S, 5R)-5-(6-amino-2-fluoro-9H-purin-9-yl)-2-ethynyl-3-hydroxy-tetrahydrofuran-2-yl)methyl 2-(1-adamantyl)ethyl carbonate]	efficiently release EFdA in vivo with minimal to low levels of prodrug detected in the systemic circulation	
Yes	< 50 min	< 50 min	Yes	C#C[C@]1(COC(=O)OCCCC23CC4CC(CC(C4)C2)C3)O[C@@H](n2cnc3c(N)nc(F)nc32)C[C@@H]1O [Compound 10, ((2R,3S,5R)-5-(6-amino-2-fluoro-9H-purin-9-yl)-2-ethynyl-3-hydroxy-tetrahydrofuran-2-yl)methyl 3-(1-adamantyl)propyl carbonate]	efficiently release EFdA in vivo with minimal to low levels of prodrug detected in the systemic circulation	
Yes	< 50 min	< 50 min	Yes	C#C[C@]1(COC(=O)OCCCCC23CC4CC(CC(C4)C2)C3)O[C@@H](n2cnc3c(N)nc(F)nc32)C[C@@H]1O [Compound 12, ((2R,3S,5R)-5-(6-amino-2-fluoro-9H-purin-9-yl)-2-ethynyl-3-hydroxy-tetrahydrofuran-2-yl)methyl 4-(1-adamantyl)butyl carbonate]	efficiently release EFdA in vivo with minimal to low levels of prodrug detected in the systemic circulation	
No	> 200 min	50 to 200 min	Yes	C#C[C@]1(COC(=O)OCCCC23CC4CC(CC(C4)C2)C3)O[C@@H](n2cnc3c(N)nc(F)nc32)C[C@@H]1OC(=O)OCCCC12CC3CC(CC(C3)C1)C2 [Compound 22, ((2R,3S,5R)-3-[3-(1-adamantyl)propoxycarbonyloxy]-5-(6-amino-2-fluoro-9H-purin-9-yl)-2-ethynyl-tetrahydrofuran-2-yl)methyl 3-(1-adamantyl)propyl carbonate]		
No	> 200 min	< 50 min	Yes	C#C[C@]1(COC(=O)OCC23CC4CC(CC(C4)C2)C3)O[C@@H](n2cnc3c(N)nc(F)nc32)C[C@@H]1OC(=O)OCC12CC3CC(CC(C3)C1)C2 [Compound 23, ((2R,3S,5R)-3-(1-adamantylmethoxycarbonyloxy)-5-(6-amino-2-fluoro-9H-purin-9-yl)-2-ethynyl-tetrahydrofuran-2-yl)methyl 1-adamantylmethyl carbonate]		
No	> 200 min	< 50 min	Yes	C#C[C@]1(COC(=O)OC23CC4CC(CC(C4)C2)C3)O[C@@H](n2cnc3c(N)nc(F)nc32)C[C@@H]1OC(=O)C(C)C [Compound 28, ((2R,3S,5R)-2-(1-adamantyloxycarbonyloxymethyl)-5-(6-amino-2-fluoro-9H-purin-9-yl)-2-ethynyl-tetrahydrofuran-3-yl) 2-methylpropanoate]		
